What was measured:
Format in all cases: cell-based, human
SGSH = experiment: DNA microarray, SGSH expression in fibroblasts exposed to genistein; conditions: for SGSH fold change Average: 48 h vs DMSO
Description: (§1) The experiments were conducted to characterise the transcriptomic profile of human fibroblast cells exposed to genistein, and in particular to determine the expression of genes encoding lysosomal enzymes involved in metabolism (i.e. synthesis and degradation) of organic substances. The absence or deficiency of these enzymes' activity is responsible for occurrence of various lysosomal storage diseases (LSD) (including MPS). The tested hypothesis assumed that genistein influences the expression of many genes, among which there are genes coding for enzymes required in metabolism of compounds, which are pathologically stored in LSD. The results provide important information regarding genistein action on the molecular level within the range of gene expression modulation by this substance. The experiment was conducted in biological quintuplicates. Human dermal fibroblasts (HDFa) were exposed in vitro for 1, 24 or 48 hours to: 30, 60 or 100 μM of genistein; 0.05% DMSO (K1); or were untreated (control cells) (K2), and total RNA was isolated and analysed.
(§2) Fibroblast cells were grown in Dulbecco (DMEM) medium supplemented with 10% fetal bovine serum (FBS) with the addition of 1% antibiotics and anti-fungal agents at 37° C. in humidified atmosphere of 5% CO2, until the required confluency was obtained.
(§3) To determine the effect of tested compound on the transcriptom of the fibroblast cells, the growth medium was replaced with fresh medium, either non-supplemented (0.05% DMSO), or containing genistein (30, 60 or 100 μM, in 0.05% DMSO). The exposure was done for 1, 24 or 48 hours.
(§4) Total RNA was isolated from fibroblasts using High Pure RNA Isolation Kit according to the protocol and then it was quantitatively evaluated using Quant-It™ RiboGreen® Assay Kit.
(§5) Biotinylated cRNA was prepared using Ambion Total PrepAmp Kit for Illumina arrays.
(§6) Standard hybridization and quantitative image analysis procedures—Illumina hybridization protocol and Illumina scanning protocol, were used.
(§7) Processing of the results was done during data definition, including: background correction (using background subtraction method), normalization (using quantile normalization algorithm with Illumina GenomeStudio software package: gene expression module version 1.9.0) and summarization (using method, which sums the values of signal intensities from a set of probes).

ARSA = experiment: DNA microarray, ARSA expression in fibroblasts exposed to genistein; conditions: for ARSA fold change Average: 48 h vs DMSO
Description: as §1, §2, §3, §4, §5, §6, §7

CTSF = experiment: DNA microarray, CTSF expression in fibroblasts exposed to genistein; conditions: for CTSF fold change Average: 48 h vs DMSO
Description: as §1, §2, §3, §4, §5, §6, §7

CTSO = experiment: DNA microarray, CTSO expression in fibroblasts exposed to genistein; conditions: for CTSO fold change Average: 48 h vs DMSO
Description: as §1, §2, §3, §4, §5, §6, §7

CD164 = experiment: DNA microarray, CD164 expression in fibroblasts exposed to genistein; conditions: for CD164 fold change Average: 48 h vs DMSO
Description: as §1, §2, §3, §4, §5, §6, §7

O=c1c(-c2ccc(O)cc2)coc2cc(O)cc(O)c12 [genistein, 4′,5,7-trihydroxy-3-phenylchromen-4-one]
SGSH fold change Average 1h30/1hK1 (SGSH; 30 μM, 1 h vs 0.05% DMSO): 1.0703 fold change | SGSH fold change Average 1h60/1hK1 (SGSH; 60 μM, 1 h vs 0.05% DMSO): 1.065 fold change | SGSH fold change Average (SGSH; 60 μM): 1.122 fold change | SGSH fold change Average 1h100/1hK1 (SGSH; 100 μM, 1 h vs 0.05% DMSO): 1.07 fold change | SGSH fold change Average (SGSH; 100 μM): 0.9299 fold change | ARSA fold change Average 1h30/1hK1 (ARSA; 30 μM, 1 h vs 0.05% DMSO): 0.9099 fold change | ARSA fold change Average 1h60/1hK1 (ARSA; 60 μM, 1 h vs 0.05% DMSO): 0.9092 fold change | ARSA fold change Average (ARSA; 60 μM): 1.218 fold change | ARSA fold change Average 1h100/1hK1 (ARSA; 100 μM, 1 h vs 0.05% DMSO): 0.963 fold change | ARSA fold change Average (ARSA; 100 μM): 1.526 fold change | CTSF fold change Average 1h30/1hK1 (CTSF; 30 μM, 1 h vs 0.05% DMSO): 1.0096 fold change | CTSF fold change Average (CTSF; 30 μM): 1.417 fold change | CTSF fold change Average 1h60/1hK1 (CTSF; 60 μM, 1 h vs 0.05% DMSO): 0.9505 fold change | CTSF fold change Average (CTSF; 60 μM): 1.8 fold change | CTSF fold change Average 1h100/1hK1 (CTSF; 100 μM, 1 h vs 0.05% DMSO): 0.9458 fold change | CTSF fold change Average (CTSF; 100 μM): 2.066 fold change | CTSO fold change Average 1h30/1hK1 (CTSO; 30 μM, 1 h vs 0.05% DMSO): 0.9973 fold change | CTSO fold change Average (CTSO; 30 μM): 1.2507 fold change | CTSO fold change Average 1h60/1hK1 (CTSO; 60 μM, 1 h vs 0.05% DMSO): 1 fold change | CTSO fold change Average (CTSO; 60 μM): 1.276 fold change | CTSO fold change Average 1h100/1hK1 (CTSO; 100 μM, 1 h vs 0.05% DMSO): 1.07 fold change | CTSO fold change Average (CTSO; 100 μM): 1.471 fold change | CD164 fold change Average 1h30/1hK1 (CD164; 30 μM, 1 h vs 0.05% DMSO): 1.0714 fold change | CD164 fold change Average (CD164; 30 μM): 0.9618 fold change | CD164 fold change Average 1h60/1hK1 (CD164; 60 μM, 1 h vs 0.05% DMSO): 1.49 fold change | CD164 fold change Average 1h100/1hK1 (CD164; 100 μM, 1 h vs 0.05% DMSO): 1.002 fold change | CD164 fold change Average (CD164; 100 μM): 1.282 fold change

— patent publication US20150148551A1, “GENISTEIN FOR REDUCING LEVELS OF STORAGE COMPOUNDS IN THE TREATMENT AND/OR PREVENTION OF LYSOSOMAL STORAGE DISEASES (LSDS)” (3G THERAPEUTICS, INC., priority 2012, published 2015)
